The structures appear in SMILES notation.

For one data set, the system named is HEK293T cells. Particulars: treated HEK293 cells, Cell-TiterGlo.
Data set [1] addresses T1, VDR-LBD / Alexa Fluor-SRC2-3 coactivator peptide (Homo sapiens, UniProt P11473, DEL165-215).
T1 sequence (P11473 with tags, fused parts or gaps DEL165-215 limits assumed): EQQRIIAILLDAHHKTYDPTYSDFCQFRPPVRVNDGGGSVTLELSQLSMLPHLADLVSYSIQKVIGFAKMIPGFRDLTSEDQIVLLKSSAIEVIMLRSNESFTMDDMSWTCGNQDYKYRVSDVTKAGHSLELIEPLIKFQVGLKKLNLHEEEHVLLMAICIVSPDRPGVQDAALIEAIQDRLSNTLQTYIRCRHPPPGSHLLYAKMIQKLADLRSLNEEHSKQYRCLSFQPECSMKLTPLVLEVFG
Put plainly: VDR-coactivator binding fluorescence polarization assay, competitive inhibition.

Data set [2] addresses T1, VDR-LBD / Alexa Fluor-SRC2-3 coactivator peptide. Put plainly: VDR-coactivator binding fluorescence polarization assay, agonistic binding. The conditions noted are these: without LG190178. (In fluorescence polarisation assays a small probe gives low polarisation when free and higher when bound to something large.)
In data set [3] the target is T2, VP16-VDR-LBD / SRC1-GAL4 (Homo sapiens, UniProt P11473).
T2 sequence (P11473 127-423 limits assumed): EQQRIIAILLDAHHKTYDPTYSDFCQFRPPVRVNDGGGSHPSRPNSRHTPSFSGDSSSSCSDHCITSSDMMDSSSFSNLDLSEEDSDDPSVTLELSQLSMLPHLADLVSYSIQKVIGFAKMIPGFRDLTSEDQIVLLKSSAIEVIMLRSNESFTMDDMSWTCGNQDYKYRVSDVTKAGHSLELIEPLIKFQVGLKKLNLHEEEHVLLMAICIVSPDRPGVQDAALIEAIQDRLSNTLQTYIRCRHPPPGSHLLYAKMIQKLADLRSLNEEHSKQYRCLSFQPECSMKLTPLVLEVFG
Put plainly: Two-hybrid assay in HEK293T cells, inhibition in the presence of 10 nM 1,25. It counts as cell-based. Particulars: 10 nM 1,25(OH)2D3.

The target in a further data set is T3, PPARα-Gal4 (Homo sapiens, UniProt Q07869).
T3 sequence (Q07869 1-468): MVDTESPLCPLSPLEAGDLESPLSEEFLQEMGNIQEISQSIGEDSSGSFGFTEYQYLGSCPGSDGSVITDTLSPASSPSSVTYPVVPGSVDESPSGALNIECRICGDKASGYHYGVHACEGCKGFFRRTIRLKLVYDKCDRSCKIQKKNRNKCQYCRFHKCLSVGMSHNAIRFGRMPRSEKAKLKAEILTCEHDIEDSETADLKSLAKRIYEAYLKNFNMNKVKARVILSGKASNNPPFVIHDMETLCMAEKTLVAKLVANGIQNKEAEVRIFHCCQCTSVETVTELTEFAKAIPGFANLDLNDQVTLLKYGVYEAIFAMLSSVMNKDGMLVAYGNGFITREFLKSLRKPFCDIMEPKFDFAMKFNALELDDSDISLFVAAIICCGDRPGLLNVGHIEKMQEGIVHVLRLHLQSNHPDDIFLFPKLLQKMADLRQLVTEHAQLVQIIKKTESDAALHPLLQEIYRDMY
It counts as cell-based. Particulars: HEK293 cells, luminescence.

In another data set the test system is VDR target gene CYP24A1. Put plainly: CYP24A1 gene regulation in DU145 cells by qRT-PCR. It counts as cell-based. The conditions noted are these: 7.5 μM, with 20 nM 1,25(OH)2D3, 18 hours. In general terms: Real-time PCR tracks product formation cycle by cycle.
The next data set relates to VDR. The conditions noted are these: cited from earlier work.
For data set [4], the target named is T2, VP16-VDR-LBD / SRC1-GAL4. Put plainly: Two-hybrid assay in HEK293T cells, agonist mode. It counts as cell-based.

`C[C@H](CCC(=O)O)[C@H]1CC[C@H]2[C@@H]3[C@H](O)C[C@@H]4C[C@H](O)CC[C@]4(C)[C@H]3CC[C@]12C` [CDCA, chenodeoxycholic acid]: the “Toxicity LD50” value with HEK293T cells is over 150 µM.

On to `C=C1/C(=C\C=C2/CCC[C@]3(C)[C@@H]([C@H](C)CC(=O)O)CC[C@@H]23)C[C@@H](O)C[C@@H]1O` [Calcitroic Acid, calcitroic acid], for which, in data set [1] (ratio of IC50 values), the “Potency of VDR-SRC2-3 inhibition relative to LCA” value is “approximately six times more potent”. The “VDR-LBD recruitment of SRC2-3 coactivator peptide (in words)” value (shortened to “VDR-LBD recruitment”) in data set [2] was “not able to support”.

For the compound `CC(=O)O[C@@H]1CC[C@@]2(C)[C@H](CC[C@@H]3[C@@H]2CC[C@]2(C)[C@@H]([C@H](C)CCC(=O)O)CC[C@@H]32)C1` [LCA Acetate], the “Inhibition of VDR-SRC1 binding in the presence of 1,25(OH)2D3 (in words)” value (shortened to “Inhibition of VDR-SRC1 binding”) at VP16-VDR-LBD / SRC1-GAL4 [3] is “No inhibition”. Besides, the “VDR-LBD recruitment” value in data set [2] is recorded as “not able to support”.

Regarding `C[C@H](CCC(=O)O)[C@H]1CC[C@H]2[C@@H]3CC[C@@H]4C[C@H](O[C@@H]5O[C@H](C(=O)O)[C@@H](O)[C@H](O)[C@H]5O)CC[C@]4(C)[C@H]3CC[C@]12C` [LCA Gluc I, lithocholic acid glucuronide I], the “Activation of transcription for the PPARα-Gal4 system” value on PPARα-Gal4 is “no activation of transcription”. Besides, the “Inhibition of VDR-SRC1 binding” value at VP16-VDR-LBD / SRC1-GAL4 [3] is given as “no inhibition”.

Take `C[C@H](CCC(=O)O[C@@H]1O[C@H](C(=O)O)[C@@H](O)[C@H](O)[C@H]1O)[C@H]1CC[C@H]2[C@@H]3CC[C@@H]4C[C@H](O)CC[C@]4(C)[C@H]3CC[C@]12C` [LCA Gluc II, lithocholic acid glucuronide II]: on PPARα-Gal4, the “Activation of transcription for the PPARα-Gal4 system” value is recorded as “no activation of transcription”. Also, in the data set with VDR target gene CYP24A1, the “Induction of CYP24A1 in the presence of 1,25(OH)2D3 (in words)” value was “more pronounced”. Also, the “Inhibition of VDR-SRC1 binding” value on VP16-VDR-LBD / SRC1-GAL4 [3] is “no inhibition”.

In the case of `C[C@H](CCC(=O)O)[C@H]1CC[C@H]2[C@@H]3CC[C@@H]4C[C@H](O)CC[C@]4(C)[C@H]3CC[C@]12C` [LCA, lithocholic acid], the Reported cellular activity result with VDR is “approximately 10 μM”.

With `COC(=O)CC[C@@H](C)[C@H]1CC[C@H]2[C@@H]3CC[C@@H]4C[C@H](O)CC[C@]4(C)[C@H]3CC[C@]12C` [LCME, lithocholic acid methyl ester], the “Inhibition of VDR-SRC2-3 binding (in words)” value in data set [1] (fluorescence polarization, with LG190178) was “inactive”. Further, the “Activation in the cellular VDR-SRC1 2-hybrid assay (in words)” value at VP16-VDR-LBD / SRC1-GAL4 [4] was “did not activate transcription”. Also, the “VDR-LBD recruitment” value in data set [2] is recorded as “not able to support”.

With `C[C@H](CCC(=O)O)[C@H]1CC[C@H]2[C@@H]3[C@@H](O)C[C@@H]4C[C@H](O)CC[C@]4(C)[C@H]3CC[C@]12C` [UDCA, ursodeoxycholic acid], the “Toxicity LD50” value with HEK293T cells is over 150 µM.

The values are drawn from publication PMC4737989 (European journal of medicinal chemistry, 2016).
